Data on 6 molecules can be found in EP0293532A1, “6- or 7-beta-[2-[4-(substituted)-2,3-dioxopiperazin-1-yl) carbonylamino]-(substituted)acetamido]-penicillin and cephalosporin derivatives” (BEECHAM GROUP PLC, priority 1987, dated 1988).

Counter-ions that a name gives are not always drawn.

One may read the MIC as the least concentration at which growth counts as inhibited. A higher MIC goes with a need for much substance.

Holding throughout (assay): MIC by serial dilution in Iso-sensitest agar
Holding throughout (assay type): cell-based

One experiment relates to S agalactiae 2798. Conditions: 10⁴ colony-forming units, overnight at 37°C, lowest concentration to inhibit growth. As to the method:
(§1) Minimum Inhibitory Concentration (MIC) values of compounds of the invention against a variety of organisms were determined by serial dilution in Iso-sensitest agar (from Oxoid Ltd. Basingstoke, England). The plates were inoculated with 10⁴ colony-forming units and incubated overnight at 37°C. The MIC values recorded in Table I were the lowest concentration of antibiotic to inhibit growth. Comparative data for Piperacillin (6β-[D-2-[(4-ethyl-2, 3-dioxopiperazin-1-yl)carbonylamino]-2-phenylacetamido] -penicillanic acid, sodium salt) and for the compound 6α-formamido-6β-[D-2-[(4-ethyl-2, 3-dioxopiperazin-1-yl)carbonylamino]-2- phenyl acetamido]-penicillanic acid, sodium salt (Compound A) disclosed in U.K. Patent GB-2107307B, are also given.

Another experiment relates to E.Coli DC RTEM. As to conditions: Escherichia coli. How it is done:
as §1

Another experiment relates to P.aerginosa 10662. Conditions: 10⁴ colony-forming units, overnight at 37°C, lowest concentration to inhibit growth. How it is done:
as §1

Another experiment concerns E.Coli JT 425. Conditions: Escherichia coli, JT425, 10⁴ colony-forming units, overnight at 37°C, lowest concentration to inhibit growth. As to the method: as §1
A further experiment relates to K.pneumoniae T767. As to conditions: Klebsiella pneumoniae, 10⁴ colony-forming units, overnight at 37°C, lowest concentration to inhibit growth. How it is done:
as §1

The next experiment concerns P.aeruginosa K79961. As to conditions: Pseudomonas aeruginosa, 10⁴ colony-forming units, overnight at 37°C, lowest concentration to inhibit growth. As to the method: as §1

Regarding `CO[C@@]1(NC(=O)[C@H](NC(=O)N2CCN(Cc3ccc(O)c(O)c3)C(=O)C2=O)c2ccccc2)C(=O)N2[C@@H](C(=O)O)C(C)(C)S[C@@H]21` [Example 3, Sodium 6β-[D-2-[[4-(3,4-Dihydroxybenzyl)-2,3-dioxopiperazin-1-yl]carbonylamino]-2-phenylacetamido]-6α-methoxypenicillanate], the MIC is greater than 128 µg/mL against S agalactiae 2798; 2 µg/mL in the experiment with E.Coli DC RTEM; 4 µg/mL in the experiment with P.aerginosa 10662; 16 µg/mL with E.Coli JT 425; 0.25 µg/mL against K.pneumoniae T767; 1 µg/mL in the experiment on P.aeruginosa K79961.

Consider `CCN1CCN(C(=O)N[C@@H](C(=O)N[C@@H]2C(=O)N3[C@@H]2SC(C)(C)[C@@H]3C(=O)O)c2ccccc2)C(=O)C1=O` [Piperacillin, 6β-[D-2-[(4-ethyl-2,3-dioxopiperazin-1-yl)carbonylamino]-2-phenylacetamido] -penicillanic acid, sodium salt, reference compound], for which the MIC in the experiment with S agalactiae 2798 was 0.5 µg/mL; against E.Coli DC RTEM, greater than 128 µg/mL; in the experiment on P.aerginosa 10662, 8 µg/mL; in the experiment with E.Coli JT 425 it was 32 µg/mL; in the experiment with K.pneumoniae T767, 8 µg/mL; in the experiment with P.aeruginosa K79961 it was 0.25 µg/mL.

Take `CCN1CCN(C(=O)N[C@@H](C(=O)N[C@]2(NC=O)C(=O)N3[C@@H](C(=O)O)C(C)(C)S[C@@H]32)c2ccccc2)C(=O)C1=O` [Compound A, 6α-formamido-6β-[D-2-[(4-ethyl-2,3-dioxopiperazin-1-yl)carbonylamino]-2-phenylacetamido]-penicillanic acid, sodium salt, reference compound]: the MIC in the experiment with S agalactiae 2798 was found to be 64 µg/mL; against E.Coli DC RTEM, 0.12 µg/mL; with P.aerginosa 10662, 1 µg/mL; in the experiment on E.Coli JT 425 it was 0.25 µg/mL; against K.pneumoniae T767, 0.12 µg/mL; with P.aeruginosa K79961, 0.12 µg/mL.

In the case of `CC1(C)S[C@H]2N(C(=O)[C@@]2(NC=O)NC(=O)[C@H](NC(=O)N2CCN(Cc3ccc(O)c(O)c3)C(=O)C2=O)c2ccccc2)[C@H]1C(=O)O` [Example 2, Sodium 6β-[D-2[[4-(3,4-Dihydroxybenzyl)-2,3-dioxopiperazin-1-yl]carbonylamino]-2-phenylacetamido]-6α-formamidopenicillanate], the MIC against S agalactiae 2798 is 16 µg/mL; with E.Coli DC RTEM it was less than 0.03 µg/mL; against P.aerginosa 10662, 0.12 µg/mL; against E.Coli JT 425, less than 0.03 µg/mL; against K.pneumoniae T767 it was less than 0.03 µg/mL; against P.aeruginosa K79961, 0.12 µg/mL.

Regarding `CC1(C)S[C@H]2N(C(=O)[C@@]2(NC=O)NC(=O)[C@H](NC(=O)N2CCN(Cc3cc(O)c(O)cn3)C(=O)C2=O)c2ccccc2)[C@H]1C(=O)O` [Example 6, Sodium 6β-[D-2-[[4-(4,5-Dihydroxypyridin-2-ylmethyl)-2,3-dioxopiperazin-1-yl]carbonylamino]-2-phenylacetamido]-6α-formamidopenicillanate], the MIC is greater than 32 µg/mL in the experiment on S agalactiae 2798; 0.06 µg/mL in the experiment on E.Coli DC RTEM; 1 µg/mL in the experiment with P.aerginosa 10662; 0.25 µg/mL against E.Coli JT 425; 0.06 µg/mL in the experiment on K.pneumoniae T767; 0.3 µg/mL in the experiment with P.aeruginosa K79961.

Turning to `CC1(C)S[C@@H]2[C@H](NC(=O)[C@H](NC(=O)N3CCN(Cc4ccc(O)c(O)c4)C(=O)C3=O)c3ccccc3)C(=O)N2[C@H]1C(=O)O` [Example 1, Sodium 6β-[D-2[[4-(3,4-Dihydroxybenzyl)-2,3-dioxopiperazin-1-yl]carbonylamino]-2-phenylacetamido]penicillanate], the minimum inhibitory concentration (MIC) in the experiment on S agalactiae 2798 is 0.25 µg/mL; against E.Coli DC RTEM, 4 µg/mL; against P.aerginosa 10662 it was 0.12 µg/mL; with E.Coli JT 425 it was 1 µg/mL; with K.pneumoniae T767, 0.5 µg/mL; against P.aeruginosa K79961, less than 0.06 µg/mL.
